Patent publication US20190256474A1, “N-PHENYL-2-(3-PHENYL-6-OXO-1,6-DIHYDROPYRIDAZIN-1-YL)ACETAMIDE DERIVATIVES FOR TREATING CYSTIC FIBROSIS” (Proteostasis Therapeutics, Inc., priority 2016, published 2019)

Molecular target: T1, ΔF508-CFTR (Homo sapiens, UniProt P13569, DEL508-508)
T1 construct: Primary lung epithelial cells homozygous for the Cystic Fibrosis-causing ΔF508 mutation were differentiated; endogenous in cells; host or cells: primary human bronchial epithelial cells (hBE), ΔF508/ΔF508
T1 sequence (P13569 with tags, fused parts or gaps DEL508-508): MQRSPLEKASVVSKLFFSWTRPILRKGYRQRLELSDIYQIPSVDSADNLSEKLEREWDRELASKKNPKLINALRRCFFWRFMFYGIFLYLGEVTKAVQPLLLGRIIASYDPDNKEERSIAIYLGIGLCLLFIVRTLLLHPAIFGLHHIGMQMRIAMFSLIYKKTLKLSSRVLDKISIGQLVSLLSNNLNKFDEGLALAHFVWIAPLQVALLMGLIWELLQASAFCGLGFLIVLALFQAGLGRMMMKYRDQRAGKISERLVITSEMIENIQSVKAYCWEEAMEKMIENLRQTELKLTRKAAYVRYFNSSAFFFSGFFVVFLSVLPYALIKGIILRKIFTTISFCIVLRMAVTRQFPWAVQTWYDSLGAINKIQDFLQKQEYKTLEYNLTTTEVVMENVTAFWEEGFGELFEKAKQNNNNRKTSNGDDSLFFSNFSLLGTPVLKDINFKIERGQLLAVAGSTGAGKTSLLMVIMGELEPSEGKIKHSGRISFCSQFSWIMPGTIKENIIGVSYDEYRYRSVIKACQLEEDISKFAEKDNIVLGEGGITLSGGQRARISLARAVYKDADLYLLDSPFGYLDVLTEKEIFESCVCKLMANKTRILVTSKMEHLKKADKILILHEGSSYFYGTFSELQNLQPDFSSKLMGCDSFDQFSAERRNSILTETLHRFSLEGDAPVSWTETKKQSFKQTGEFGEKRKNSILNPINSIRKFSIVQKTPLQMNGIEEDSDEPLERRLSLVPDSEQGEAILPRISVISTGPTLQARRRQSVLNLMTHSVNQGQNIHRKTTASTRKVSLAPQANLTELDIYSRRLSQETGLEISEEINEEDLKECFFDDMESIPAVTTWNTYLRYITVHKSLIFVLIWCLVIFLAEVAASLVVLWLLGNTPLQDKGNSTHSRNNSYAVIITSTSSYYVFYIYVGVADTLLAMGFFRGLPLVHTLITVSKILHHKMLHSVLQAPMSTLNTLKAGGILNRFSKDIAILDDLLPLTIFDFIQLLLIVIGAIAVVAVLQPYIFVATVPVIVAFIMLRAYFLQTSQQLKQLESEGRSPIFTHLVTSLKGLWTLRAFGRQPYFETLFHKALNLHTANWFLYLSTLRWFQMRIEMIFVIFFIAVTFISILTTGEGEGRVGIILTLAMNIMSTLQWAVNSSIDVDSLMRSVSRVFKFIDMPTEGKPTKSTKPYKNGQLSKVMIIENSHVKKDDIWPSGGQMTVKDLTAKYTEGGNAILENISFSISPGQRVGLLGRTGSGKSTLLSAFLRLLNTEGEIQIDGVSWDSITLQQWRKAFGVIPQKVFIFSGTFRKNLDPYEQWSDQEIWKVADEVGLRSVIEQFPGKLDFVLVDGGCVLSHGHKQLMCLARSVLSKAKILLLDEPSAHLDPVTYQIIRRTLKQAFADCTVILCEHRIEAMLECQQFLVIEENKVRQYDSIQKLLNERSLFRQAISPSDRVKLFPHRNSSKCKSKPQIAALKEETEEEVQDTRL
Assay: hBE equivalent current (Ieq) assay, CFTR activity
Type: cell-based
Conditions: relative to a CFTR amplifier at 3 μM, ΔF508 homozygous hBE, 24 h treatment; for Activity 3 μM: compound at 3 μM; for Activity 10 μM: compound at 10 μM
Procedure: Primary lung epithelial cells homozygous for the Cystic Fibrosis-causing ΔF508 mutation were differentiated for a minimum of 4 weeks in an air-liquid interface on Costar 24 well HTS filter plates prior to the equivalent current (Ieq) measurements. Cells were apically mucus-washed for 30 minutes 24 h prior to treatment with compounds. The basolateral media was removed and replaced with media containing the compound of interest diluted to its final concentration from DMSO stocks. Treated cells were incubated at 37° C. and 5% CO2 for 24 hours. At the end of the treatment period, the media was changed to the Ieq experimental solution for 2 hours before the experiment and plates are maintained in a CO2-free incubator during this period. The plates containing the cells were then placed in pre-warmed heating blocks at 36° C.±0.5 for 15 minutes before measurements are taken. The transepithelial voltage (VT) and conductance (GT) were measured using a custom 24 channel current clamp (TECC-24) with 24 well electrode manifold. The Ieq assay measurements were made following additions with standardized time periods:
1. The baseline VT and GT values were measured for approximately 20 minutes.
2. Benzamil was added to block ENaC for 15 minutes.
3. Forskolin plus VX-770 were added to maximally activate ΔF508-CFTR for 27 minutes.
4. Bumetanide was added to inhibit the NaK2Cl cotransporter and shut-off secretion of chloride.
The activity data captured was the area under the curve (AUC) for the traces of the equivalent chloride current. The AUC was collected from the time of the forskolin/VX-770 addition until the inhibition by bumetanide addition. Correction in response to compound treatment was scored as the increase in the AUC for compound-treated samples over that of vehicle-treated samples.
The results are shown below in Table 1. + indicates activity <150% of a CFTR amplifier with compound at concentration shown and amplifier at 3 μM; ++ indicates activity >150% of a CFTR amplifier with compound at concentration shown and amplifier at 3 μM.

| SMILES | Activity 3 μM | Activity 10 μM |
| --- | --- | --- |
| CC(C(=O)Nc1cc(F)cc(F)c1)n1nc(-c2cccc(Cl)c2)ccc1=O (stereo not shown) [Compound 1, 2-[3-(3-Chlorophenyl)-6-oxo-1,6-dihydropyridazin-1-yl]-N-(3,5-difluorophenyl)propanamide] | ++ (activity >150% of a CFTR amplifier with compound at concentration shown and amplifier at 3 μM) | ++ (activity >150% of a CFTR amplifier with compound at concentration shown and amplifier at 3 μM) |
| CC(C(=O)Nc1cc(F)cc(F)c1)n1nc(-c2cccc(OC(F)(F)F)c2)ccc1=O (stereo not shown) [Compound 2, N-(3,5-Ddifluorophenyl)-2-[6-oxo-3-[3-(trifluoromethoxy)phenyl]-1,6-dihydropyridazin-1-yl]propanamide] | + (activity <150% of a CFTR amplifier with compound at concentration shown and amplifier at 3 μM) | + (activity <150% of a CFTR amplifier with compound at concentration shown and amplifier at 3 μM) |
| COc1cc(OC)cc(-c2ccc(=O)n(C(C)C(=O)Nc3cc(F)cc(F)c3)n2)c1 (stereo not shown) [Compound 3, N-(3,5-difluorophenyl)-2-[3-(3,5-dimethoxyphenyl)-6-oxo-1,6-dihydropyridazin-1-yl]propanamide] | ++ (activity >150% of a CFTR amplifier with compound at concentration shown and amplifier at 3 μM) | ++ (activity >150% of a CFTR amplifier with compound at concentration shown and amplifier at 3 μM) |
| CC(C(=O)Nc1cc(F)cc(F)c1)n1nc(-c2cccc(N(C)C)c2)ccc1=O (stereo not shown) [Compound 4, N-(3,5-Difluorophenyl)-2-[3-[3-(dimethylamino)phenyl]-6-oxo-1,6-dihydropyridazin-1-yl]propanamide] | – | + (activity <150% of a CFTR amplifier with compound at concentration shown and amplifier at 3 μM) |
| CC(C(=O)Nc1cc(F)cc(F)c1)n1nc(-c2cccc(-c3ccccc3)c2)ccc1=O (stereo not shown) [Compound 5, N-(3,5-Difluorophenyl)-2-[6-oxo-3-(3-phenylphenyl)-1,6-dihydropyridazin-1-yl]propanamide] | + (activity <150% of a CFTR amplifier with compound at concentration shown and amplifier at 3 μM) | + (activity <150% of a CFTR amplifier with compound at concentration shown and amplifier at 3 μM) |
| COc1cccc(NC(=O)C(C)n2nc(-c3cccc(OC)c3)ccc2=O)c1 (stereo not shown) [Compound 6, N-(3-Methoxyphenyl)-2-[3-(3-methoxyphenyl)-6-oxo-1,6-dihydropyridazin-1-yl]propanamide] | + (activity <150% of a CFTR amplifier with compound at concentration shown and amplifier at 3 μM) | + (activity <150% of a CFTR amplifier with compound at concentration shown and amplifier at 3 μM) |
| COc1cccc(-c2ccc(=O)n(C(C)C(=O)Nc3cccc(C(F)(F)F)c3)n2)c1 (stereo not shown) [Compound 7, 2-[3-(3-Methoxyphenyl)-6-oxo-1,6-dihydropyridazin-1-yl]-N-[3-(trifluoromethyl)phenyl]propanamide] | + (activity <150% of a CFTR amplifier with compound at concentration shown and amplifier at 3 μM) | + (activity <150% of a CFTR amplifier with compound at concentration shown and amplifier at 3 μM) |
| COc1cccc(-c2ccc(=O)n(C(C)C(=O)Nc3ccccc3C(C)(C)C)n2)c1 (stereo not shown) [Compound 9, N-(2-tert-Butylphenyl)-2-[3-(3-methoxyphenyl)-6-oxo-1,6-dihydropyridazin-1-yl]propanamide] | + (activity <150% of a CFTR amplifier with compound at concentration shown and amplifier at 3 μM) | + (activity <150% of a CFTR amplifier with compound at concentration shown and amplifier at 3 μM) |
| COc1cccc(-c2ccc(=O)n(C(C)C(=O)Nc3cccc(C(C)(C)C)c3)n2)c1 (stereo not shown) [Compound 10, N-(3-tert-Butylphenyl)-2-[3-(3-methoxyphenyl)-6-oxo-1,6-dihydropyridazin-1-yl]propanamide] | – | ++ (activity >150% of a CFTR amplifier with compound at concentration shown and amplifier at 3 μM) |
| COc1cccc(-c2ccc(=O)n(C(C)C(=O)Nc3ccc(C(C)(C)C)cc3)n2)c1 (stereo not shown) [Compound 11, N-(4-tert-Butylphenyl)-2-[3-(3-methoxyphenyl)-6-oxo-1,6-dihydropyridazin-1-yl]propanamide] | – | + (activity <150% of a CFTR amplifier with compound at concentration shown and amplifier at 3 μM) |
| COc1cccc(-c2ccc(=O)n(C(C)C(=O)Nc3ccccc3Cl)n2)c1 (stereo not shown) [Compound 12, N-(2-Chlorophenyl)-2-[3-(3-methoxyphenyl)-6-oxo-1,6-dihydropyridazin-1-yl]propanamide] | + (activity <150% of a CFTR amplifier with compound at concentration shown and amplifier at 3 μM) | + (activity <150% of a CFTR amplifier with compound at concentration shown and amplifier at 3 μM) |
| COc1cccc(-c2ccc(=O)n(C(C)C(=O)Nc3cccc(Cl)c3)n2)c1 (stereo not shown) [Compound 13, N-(3-Chlorophenyl)-2-[3-(3-methoxyphenyl)-6-oxo-1,6-dihydropyridazin-1-yl]propanamide] | ++ (activity >150% of a CFTR amplifier with compound at concentration shown and amplifier at 3 μM) | ++ (activity >150% of a CFTR amplifier with compound at concentration shown and amplifier at 3 μM) |
| COc1cccc(-c2ccc(=O)n(C(C)C(=O)Nc3ccc(Cl)cc3)n2)c1 (stereo not shown) [Compound 14, N-(4-Chlorophenyl)-2-[3-(3-methoxyphenyl)-6-oxo-1,6-dihydropyridazin-1-yl]propanamide] | – | ++ (activity >150% of a CFTR amplifier with compound at concentration shown and amplifier at 3 μM) |
| COc1cccc(-c2ccc(=O)n(C(C)C(=O)Nc3ccccc3)n2)c1 (stereo not shown) [Compound 15, 2-[3-(3-Methoxyphenyl)-6-oxo-1,6-dihydropyridazin-1-yl]-N-phenylpropanamide] | + (activity <150% of a CFTR amplifier with compound at concentration shown and amplifier at 3 μM) | + (activity <150% of a CFTR amplifier with compound at concentration shown and amplifier at 3 μM) |
| COc1cccc(-c2ccc(=O)n(CC(=O)Nc3cc(F)cc(F)c3)n2)c1 [Compound 16, N-(3,5-Difluorophenyl)-2-[3-(3-methoxyphenyl)-6-oxo-1,6-dihydropyridazin-1-yl]acetamide] | – | + (activity <150% of a CFTR amplifier with compound at concentration shown and amplifier at 3 μM) |
| COc1cccc(-c2ccc(=O)n(C(C)C(=O)N(C)c3cc(F)cc(F)c3)n2)c1 (stereo not shown) [Compound 17, N-(3,5-Difluorophenyl)-2-[3-(3-methoxyphenyl)-6-oxo-1,6-dihydropyridazin-1-yl]-N-methylpropanamide] | + (activity <150% of a CFTR amplifier with compound at concentration shown and amplifier at 3 μM) | + (activity <150% of a CFTR amplifier with compound at concentration shown and amplifier at 3 μM) |
| COc1cccc(-c2ccc(=O)n(C(C)(C)C(=O)Nc3cc(F)cc(F)c3)n2)c1 [Compound 18, N-(3,5-Difluorophenyl)-2-(3-(3-methoxyphenyl)-6-oxopyridazin-1(6H)-yl)-2-methylpropanamide] | + (activity <150% of a CFTR amplifier with compound at concentration shown and amplifier at 3 μM) | + (activity <150% of a CFTR amplifier with compound at concentration shown and amplifier at 3 μM) |
| Cc1ccc(-c2ccc(=O)n(C(C)C(=O)Nc3cc(F)cc(F)c3)n2)cc1O (stereo not shown) [Compound 19, N-(3,5-Difluorophenyl)-2-[3-(3-hydroxy-4-methylphenyl)-6-oxo-1,6-dihydropyridazin-1-yl]propanamide] | – | + (activity <150% of a CFTR amplifier with compound at concentration shown and amplifier at 3 μM) |
| COc1cccc(-c2cc(C)c(=O)n(C(C)C(=O)Nc3cc(F)cc(F)c3)n2)c1 (stereo not shown) [Compound 20, N-(3,5-Difluorophenyl)-2-[3-(3-methoxyphenyl)-5-methyl-6-oxo-1,6-dihydropyridazin-1-yl]propanamide] | + (activity <150% of a CFTR amplifier with compound at concentration shown and amplifier at 3 μM) | + (activity <150% of a CFTR amplifier with compound at concentration shown and amplifier at 3 μM) |
| COc1cccc(-c2nn(C(C)C(=O)Nc3cc(F)cc(F)c3)c(=O)cc2C)c1 (stereo not shown) [Compound 21, N-(3,5-Difluorophenyl)-2-[3-(3-methoxyphenyl)-4-methyl-6-oxo-1,6-dihydropyridazin-1-yl]propanamide] | + (activity <150% of a CFTR amplifier with compound at concentration shown and amplifier at 3 μM) | + (activity <150% of a CFTR amplifier with compound at concentration shown and amplifier at 3 μM) |
